According to patent US20020048549A1, “Radioactive transition metal nitride heterocomplex” (priority 1996, published 2002):
Like-named read-outs stand apart in the source and are kept apart here.

Assay: Biodistribution of 99mTc(N)(X)(DTC)+ heterocomplexes in rats
Type: in vivo, male Spraque-Dawley rats (SD rats)
Experimental: The biodistribution of a ^99mTc nitride heterocomplex represented by the general formula ^99mTc(N)(X)(Y) was investigated as follows: ^99mTc nitride heterocomplexes were synthesized using DTC as a bidentate ligand Y and each of the diphosphine compounds X described below, and the biodistribution in rats of each heterocomplex was investigated.
Before being injected into rats, the contents of the vial were diluted with phosphate buffer (0.1 mol/dm^3, pH=7.06) containing 10% Tween 80 ([…]). The complexes were stable in the solutions and in human plasma for at least 6 hours.
The biodistribution was measured using male Spraque-Dawley rats (SD rats) weighing 200 to 250 g. After 24 hours fasting, the rats were put under intraperitoneal anesthesia and given an injection in the jugular vein. Then, the organs were excised from the rats at different intervals of time, washed and then weighed. In addition, blood samples were collected and then weighed. The data on the biodistribution are expressed as the mean±significant difference of the percentage of radioactivity level per gram of the organ weight based on the dose of radioactivity, (% dose/g). The measurement was carried out using groups of 5 rats each.

Bone % dose/g: 0.244 ± 0.01 % dose/g | Heart % dose/g: 1.236 ± 0.08 % dose/g | Liver % dose/g: 3.593 ± 0.42 % dose/g | Spleen % dose/g: 1.948 ± 0.20 % dose/g | Blood % dose/g (0 min after injection): 2.125 ± 0.3 % dose/g | Brain % dose/g (0 min after injection): 0.143 ± 0.02 % dose/g | Intestine % dose/g (0 min after injection): 0.418 ± 0.03 % dose/g | Kidney % dose/g (0 min after injection): 2.66 ± 0.05 % dose/g | Lung % dose/g (0 min after injection): 5.815 ± 0.04 % dose/g | Muscle % dose/g (0 min after injection): 0.098 ± 0.00 % dose/g | Stomach % dose/g (0 min after injection): 0.337 ± 0.00 % dose/g | Blood % dose/g (2 min after injection): 1.062 ± 0.13 % dose/g | Bone % dose/g (2 min after injection): 0.234 ± 0.06 % dose/g | Brain % dose/g (2 min after injection): 0.086 ± 0.00 % dose/g | Heart % dose/g (2 min after injection): 0.824 ± 0.01 % dose/g | Intestine % dose/g (2 min after injection): 0.471 ± 0.00 % dose/g | Kidney % dose/g (2 min after injection): 4.145 ± 0.64 % dose/g | Liver % dose/g (2 min after injection): 5.555 ± 0.83 % dose/g | Lung % dose/g (2 min after injection): 4.653 ± 0.65 % dose/g | Muscle % dose/g (2 min after injection): 0.085 ± 0.01 % dose/g | Spleen % dose/g (2 min after injection): 4.459 ± 0.09 % dose/g | Stomach % dose/g (2 min after injection): 0.379 ± 0.02 % dose/g | Blood % dose/g (10 min after injection): 0.495 ± 0.01 % dose/g | Bone % dose/g (10 min after injection): 0.3 ± 0.05 % dose/g | Brain % dose/g (10 min after injection): 0.041 ± 0.00 % dose/g | Heart % dose/g (10 min after injection): 0.795 ± 0.06 % dose/g | Intestine % dose/g (10 min after injection): 0.704 ± 0.08 % dose/g | Kidney % dose/g (10 min after injection): 4.251 ± 0.02 % dose/g | Liver % dose/g (10 min after injection): 5.795 ± 0.03 % dose/g | Lung % dose/g (10 min after injection): 3.191 ± 0.60 % dose/g | Muscle % dose/g (10 min after injection): 0.121 ± 0.02 % dose/g | Spleen % dose/g (10 min after injection): 7.237 ± 0.88 % dose/g | Stomach % dose/g (10 min after injection): 0.438 ± 0.03 % dose/g | Blood % dose/g (30 min after injection): 0.285 ± 0.01 % dose/g | Bone % dose/g (30 min after injection): 0.324 ± 0.05 % dose/g | Brain % dose/g (30 min after injection): 0.027 ± 0.00 % dose/g | Heart % dose/g (30 min after injection): 0.513 ± 0.07 % dose/g | Intestine % dose/g (30 min after injection): 1.107 ± 0.31 % dose/g | Kidney % dose/g (30 min after injection): 4.095 ± 0.73 % dose/g | Liver % dose/g (30 min after injection): 5.976 ± 0.49 % dose/g | Lung % dose/g (30 min after injection): 2.089 ± 0.16 % dose/g | Muscle % dose/g (30 min after injection): 0.106 ± 0.00 % dose/g | Spleen % dose/g (30 min after injection): 5.884 ± 2.7 % dose/g | Stomach % dose/g (30 min after injection): 0.444 ± 0.09 % dose/g | Blood % dose/g (1 hr after injection): 0.311 ± 0.03 % dose/g | Bone % dose/g (1 hr after injection): 0.398 ± 0.12 % dose/g | Brain % dose/g (1 hr after injection): 0.019 ± 0.00 % dose/g | Heart % dose/g (1 hr after injection): 0.55 ± 0.04 % dose/g | Intestine % dose/g (1 hr after injection): 0.896 ± 0.04 % dose/g | Kidney % dose/g (1 hr after injection): 4.779 ± 0.21 % dose/g | Liver % dose/g (1 hr after injection): 5.116 ± 0.00 % dose/g | Lung % dose/g (1 hr after injection): 1.586 ± 0.16 % dose/g | Muscle % dose/g (1 hr after injection): 0.302 ± 0.39 % dose/g | Spleen % dose/g (1 hr after injection): 6.711 ± 1.27 % dose/g | Stomach % dose/g (1 hr after injection): 0.625 ± 0.34 % dose/g | Blood % dose/g (2 hr after injection): 0.22 ± 0.05 % dose/g | Bone % dose/g (2 hr after injection): 0.347 ± 0.01 % dose/g | Brain % dose/g (2 hr after injection): 0.025 ± 0.00 % dose/g | Heart % dose/g (2 hr after injection): 0.603 ± 0.05 % dose/g | Intestine % dose/g (2 hr after injection): 0.977 ± 0.42 % dose/g | Kidney % dose/g (2 hr after injection): 5.327 ± 0.52 % dose/g | Liver % dose/g (2 hr after injection): 3.524 ± 0.53 % dose/g | Lung % dose/g (2 hr after injection): 1.716 ± 0.23 % dose/g | Muscle % dose/g (2 hr after injection): 0.111 ± 0.01 % dose/g | Spleen % dose/g (2 hr after injection): 4.747 ± 1.78 % dose/g | Stomach % dose/g (2 hr after injection): 0.776 ± 0.07 % dose/g | Blood % dose/g (4 hr after injection): 0.137 ± 0.02 % dose/g | Bone % dose/g (4 hr after injection): 0.264 ± 0.10 % dose/g | Brain % dose/g (4 hr after injection): 0.021 ± 0.00 % dose/g | Heart % dose/g (4 hr after injection): 0.382 ± 0.04 % dose/g | Intestine % dose/g (4 hr after injection): 0.906 ± 0.24 % dose/g | Kidney % dose/g (4 hr after injection): 4.282 ± 0.67 % dose/g | Liver % dose/g (4 hr after injection): 2.604 ± 0.25 % dose/g | Lung % dose/g (4 hr after injection): 1.08 ± 0.16 % dose/g | Muscle % dose/g (4 hr after injection): 0.077 ± 0.01 % dose/g | Spleen % dose/g (4 hr after injection): 6.294 ± 1.29 % dose/g | Stomach % dose/g (4 hr after injection): 0.719 ± 0.18 % dose/g
Compound: CCCN1CC[P+](c2ccccc2)(c2ccccc2)[99Tc-2]2(#[N])([NH]N(C)C(SC)=[S+]2)[P+](c2ccccc2)(c2ccccc2)CC1 [^99mTc(N)(PNP1)(DTC)^+]
